Test results reported in patent US7138361B2, “Herbicidal heterocycles” (E. I. du Pont de Nemours and Company, priority 2000, dated 2006).

Key:
Assay type in all cases: in vivo
kochia (Kochia scoparia) = experiment: Test C preemergence
Text: (§1) Seeds of plant species selected from bermudagrass (Cynodon dactylon), Surinam grass (Brachiaria decumbens), cocklebur (Xanthium strumarium), corn (Zea mays), crabgrass (Digitaria sanguinalis), woolly cupgrass (Eriochloa villosa), giant foxtail (Setaria faberii), goosegrass (Eleusine indica), johnsongrass (Sorghum halepense), kochia (Kochia scoparia), lambsquarters (Chenopodium album), morningglory (Ipomoea hederacea), yellow nutsedge (Cyperus esculentus), pigweed (Amaranthus retroflexus), common ragweed (Ambrosia elatior), soybean (Glycine max) and velvetleaf (Abutilon theophrasti) were planted and treated preemergence with test chemicals formulated in a non-phytotoxic solvent mixture which included a surfactant.
(§2) At the same time, plants selected from these crop and weed species and also winter barley (Hordeum vulgare), blackgrass (Alopecurus myosuroides), canary grass (Phalaris minor), chickweed (Stellaria media), downy brome (Bromus tectorum), green foxtail (Setaria viridis), Italian ryegrass (Lolium multiflorum), wheat (Triticum aestivum), wild oat (Avena fatua) and windgrass (Apera spica-venti) were treated with postemergence applications of some of the test chemicals formulated in the same manner. Plants ranged in height from 2 to 18 cm (1- to 4-leaf stage) for postemergence treatments. Plant species in the flooded paddy test consisted of rice (Oryza saliva), smallflower flatsedge (Cyperus difformis), duck salad (Heteranthera limosa) and barnyardgrass (Echinochloa crus-galli) grown to the 2-leaf stage for testing. Treated plants and controls were maintained in a greenhouse for 12 to 14 days, after which time all species were compared to controls and visually evaluated. Plant response ratings, summarized in Table C, are based on a scale of 0 to 100 where 0 is no effect and 100 is complete control. A dash (-) response means no test result.

[1] = test system: bermudagrass (Cynodon dactylon); experiment: Test C preemergence
Text: as §1, §2

[2] = test system: lambsquarters (Chenopodium album); experiment: Test C preemergence
Text: as §1, §2

[3] = test system: cocklebur (Xanthium strumarium); experiment: Test C preemergence
Text: as §1, §2

Nightshade = experiment: Test C preemergence
Text: as §1, §2

[4] = test system: goosegrass (Eleusine indica); experiment: Test C preemergence
Text: as §1, §2

[5] = test system: yellow nutsedge (Cyperus esculentus); experiment: Test C preemergence
Text: as §1, §2

[6] = test system: pigweed (Amaranthus retroflexus); experiment: Test C preemergence
Text: as §1, §2

[7] = test system: crabgrass (Digitaria sanguinalis); experiment: Test C preemergence
Text: as §1, §2

[8] = test system: Surinam grass (Brachiaria decumbens); experiment: Test C preemergence
Text: as §1, §2

[9] = test system: johnsongrass (Sorghum halepense); experiment: Test C preemergence
Text: as §1, §2

[10] = test system: woolly cupgrass (Eriochloa villosa); experiment: Test C preemergence
Text: as §1, §2

Sunflower [11] = experiment: Test C preemergence
Text: as §1, §2

[12] = test system: morningglory (Ipomoea hederacea); experiment: Test C preemergence
Text: as §1, §2

[13] = test system: velvetleaf (Abutilon theophrasti); experiment: Test C preemergence
Text: as §1, §2

corn (Zea mays) = experiment: Test C preemergence
Text: as §1, §2

[14] = test system: giant foxtail (Setaria faberii); experiment: Test C preemergence
Text: as §1, §2

soybean (Glycine max) = experiment: Test C preemergence
Text: as §1, §2

Sunflower [15] = experiment: Test C preemergence; details: Rate 250 g/ha, visual evaluation after 12 to 14 days
[16] = test system: barnyardgrass (Echinochloa crus-galli); experiment: Test C flooded paddy test; details: for Barnyardgrass plant response rating: Flooded Paddy, scale 0 to 100, 0 no effect, 100 complete control; for Plant response rating, Barnyardgrass: flooded paddy test, scale 0 to 100 (0 no effect, 100 complete control)
Outline: (§3)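 2-leaf-stage plants, flooded paddy; treated; greenhouse 12–14 days; compared with controls by eye; rated 0–100 (0 none, 100 complete control).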

rice (Oryza saliva) = experiment: Test C flooded paddy test; details: for Rice plant response rating: Flooded Paddy, scale 0 to 100, 0 no effect, 100 complete control; for Plant response rating, Rice: flooded paddy test, scale 0 to 100 (0 no effect, 100 complete control)
Outline: as §3

[17] = Preemergence, Rate 500 g/ha, scale 0 to 100
[18] = Rate 62 g/ha, scale 0 to 100, 0 no effect, 100 complete control
[19] = preemergence, Rate 250 g/ha, visual evaluation after 12 to 14 days
[20] = preemergence, Rate 125 g/ha, scale 0 to 100, 0 no effect, 100 complete control

CCC(C)c1ccn(C2SCN(c3cccc(C(F)(F)F)c3)C2=O)n1 (stereo not drawn) [Compound 20]
60: Plant response rating, Pigweed [6, 17] | Plant response rating, Soybean (soybean (Glycine max); [17]) | Plant response rating (0 to 100), Soybean (soybean (Glycine max); [19]) | Plant response rating (0 to 100), Sunflower (Sunflower [15]) | Rice plant response rating (rice (Oryza saliva); Rate 250 g/ha)
70: Plant response rating, Bermudagrass [1, 18] | Plant response rating, Nightshade (Nightshade; Rate 125 g/ha, scale 0 to 100, 0 no effect, 100 complete control) | Plant response rating, Sunflower (Sunflower [11]; Rate 500 g/ha, scale 0 to 100) | Plant response rating, Barnyardgrass ([16]; Rate 62 g/ha) | Rice plant response rating (rice (Oryza saliva); Rate 500 g/ha)
0: Plant response rating, Cocklebur [3, 18] | Plant response rating (0 to 100), Cocklebur [3, 19] | Plant response rating, Cocklebur [3, 20] | Plant response rating, Nutsedge [5, 18] | Plant response rating, Nutsedge [5, 20] | Plant response rating, Pigweed [6, 18] | Plant response rating, Crabgrass [7, 18] | Plant response rating, Surinam grass [8, 18] | Plant response rating (0 to 100), Surinam grass [8, 19] | Plant response rating, Surinam grass [8, 20] | Plant response rating, Johnsongrass [9, 18] | Plant response rating, Cupgrass, Woolly [10, 18] | Plant response rating, Sunflower (Sunflower [11]; [18]) | Plant response rating, Morningglory [12, 18] | Plant response rating, Velvetleaf [13, 18] | Plant response rating, Velvetleaf [13, 20] | Plant response rating, Corn (corn (Zea mays); [18]) | Plant response rating, Foxtail, Giant [14, 17] | Plant response rating, Foxtail, Giant [14, 18] | Plant response rating, Foxtail, Giant [14, 20] | Plant response rating, Soybean (soybean (Glycine max); [18]) | Plant response rating, Soybean (soybean (Glycine max); [20]) | Plant response rating, Rice (rice (Oryza saliva); Rate 62 g/ha)
20: Plant response rating, Johnsongrass [9, 20] | Plant response rating, Velvetleaf [13, 17] | Plant response rating (0 to 100), Velvetleaf [13, 19] | Plant response rating, Rice (rice (Oryza saliva); Rate 125 g/ha)
40: Plant response rating, Surinam grass [8, 17] | Plant response rating, Morningglory [12, 17] | Plant response rating (0 to 100), Morningglory [12, 19]
50: Plant response rating, Cocklebur [3, 17] | Plant response rating, Nutsedge [5, 17] | Plant response rating (0 to 100), Nutsedge [5, 19] | Plant response rating (0 to 100), Johnsongrass [9, 19] | Plant response rating, Cupgrass, Woolly [10, 20]
90: Plant response rating, Kochia (kochia (Kochia scoparia); [18]) | Plant response rating, Lambsquarters [2, 18] | Plant response rating, Nightshade (Nightshade; Rate 500 g/ha, scale 0 to 100) | Plant response rating (0 to 100), Cupgrass, Woolly [10, 19]
100: Plant response rating, Kochia (kochia (Kochia scoparia); [17]) | Plant response rating (0 to 100), Kochia (kochia (Kochia scoparia); [19]) | Plant response rating, Kochia (kochia (Kochia scoparia); [20]) | Plant response rating, Bermudagrass [1, 17] | Plant response rating (0 to 100 where 0 is no effect and 100 is complete control), Bermudagrass [1, 19] | Plant response rating, Bermudagrass [1, 20] | Plant response rating, Lambsquarters [2, 17] | Plant response rating (0 to 100), Lambsquarters [2, 19] | Plant response rating, Lambsquarters [2, 20] | Plant response rating, Goosegrass [4, 17] | Plant response rating (0 to 100), Goosegrass [4, 19] | Plant response rating, Goosegrass [4, 20] | Plant response rating (0 to 100), Pigweed [6, 19] | Plant response rating, Crabgrass [7, 17] | Plant response rating (0 to 100), Crabgrass [7, 19] | Plant response rating, Crabgrass [7, 20] | Plant response rating, Johnsongrass [9, 17] | Plant response rating, Cupgrass, Woolly [10, 17] | Plant response rating (0 to 100), Foxtail, Giant [14, 19] | Barnyardgrass plant response rating ([16]; Rate 250 g/ha) | Barnyardgrass plant response rating ([16]; Rate 500 g/ha) | Plant response rating, Barnyardgrass ([16]; Rate 125 g/ha)
80: Plant response rating, Goosegrass [4, 18]
30: Plant response rating, Nightshade (Nightshade; [18]) | Plant response rating, Pigweed [6, 20] | Plant response rating, Morningglory [12, 20] | Plant response rating, Corn (corn (Zea mays); [17]) | Plant response rating (0 to 100), Corn (corn (Zea mays); [19]) | Plant response rating, Corn (corn (Zea mays); [20])
